Read-outs that look alike come from different tables or passages of the source.
Tested on: HCV replicon cells
Assay: Cell-based HCV replicon assay (replicon RNA level by real time PCR, Taqman)
Details: Hepatitis C virus, 72 h, HCV replicon cells, read-out: EC90 (μM) range
Summary of the method: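 HCV replicon cells treated 3 days with 10 serial 2-fold compound dilutions (top 25 μM to 1 μM; 0.5% DMSO, 10% FBS). Replicon RNA quantified by multiplex Taqman RT-PCR (NS5B amplicon, GAPDH control); EC50 and EC90 = concentrations giving ΔCT of 1 and 3.2 over baseline.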

[1] = replicon RNA level by real time PCR (Taqman), harvested on day 3, calculated EC90 reported as range class
[2] = harvested on day 3, replicon RNA by real time PCR, calculated EC90 reported as range class
[3] = replicon RNA level by real time PCR, harvested day 3
[4] = harvested day 3, replicon RNA by real time PCR, given as number
[5] = harvested day 3, replicon RNA by real time PCR, reported as range class

| Compound | EC90 [1] | EC90 [2] | further results |
| --- | --- | --- | --- |
| Cc1nc(NCc2cc(Cl)cc(Cl)c2)nc(N[C@@H]2C[C@H](CO)[C@H]3OC(C)(C)O[C@H]32)c1-c1nc2ccccc2s1 [Example 1113] | 0.5 to 5 µM |  |  |
| COCc1cc2cc(-c3c(C)nc(NCC(C)(C)C)nc3N[C@@H]3C[C@H](CO)[C@@H](O)[C@H]3O)oc2cn1 [Example 715] |  | < 0.5 µM |  |
| Cc1nc(N[C@H](c2ccc(-n3cccn3)cc2)C(F)(F)F)nc(N[C@@H]2C[C@H](CO)[C@@H](O)[C@H]2O)c1-c1nc2c(C)nccc2s1 [Example 1530] |  |  | EC90 [3]: > 5 µM |
| CC(=O)NC[C@H]1C[C@@H](Nc2nc(NCc3cccs3)nc(C)c2-c2nc3ccccc3s2)[C@H](O)[C@@H]1O [Example 1331] | < 0.5 µM |  |  |
| CCOc1cc2cc(-c3c(C)nc(NC)nc3N[C@@H]3C[C@H](CO)[C@@H](O)[C@H]3O)oc2c(C)n1 [Example 28] |  |  | EC90 [4]: 0.45 µM |
| COc1cc(CNc2nc(C)c(-c3nc4ccccc4s3)c(N[C@@H]3C[C@H](CO)[C@@H](O)[C@H]3O)n2)cc(OC)c1 [Example 701] |  | < 0.5 µM |  |
| Cc1nc(NCC(C)(F)F)nc(N[C@@H]2C[C@H](CO)[C@@H](O)[C@H]2O)c1-c1nc2ccccc2s1 [Example 1242] | 0.5 to 5 µM |  |  |
| CCCCCNc1nc(C)c(-c2cc3cc(CCC)nc(C)c3o2)c(N[C@@H]2C[C@H](CO)[C@@H](O)[C@H]2O)n1 [Example 448] |  | < 0.5 µM |  |
| Cc1nc(NCc2c(F)cccc2F)nc(N[C@@H]2CC[C@@H](O)[C@@]2(C)O)c1-c1nc2c(C)nccc2s1 [Example 1814] |  |  | EC90 [3]: < 0.5 µM |
| Nc1nc(Cl)c(-c2ccccn2)c(N[C@@H]2C[C@H](CO)[C@@H](O)[C@H]2O)n1 [Example 157] |  |  | EC90 [5]: > 5 µM |
| Cc1nc(NCC(F)(F)F)nc(N[C@@H]2C[C@H](CNS(C)(=O)=O)[C@@H](O)[C@H]2O)c1-c1nc2ccccc2s1 [Example 1507] |  |  | EC90 [3]: < 0.5 µM |
| Cc1ccc([C@H](Nc2nc(C)c(-c3nc4c(C)nccc4s3)c(N[C@@H]3C[C@H](CO)[C@@H](O)[C@H]3O)n2)C2CC2)cc1 [Example 1362] |  |  | EC90 [3]: < 0.5 µM |
| Nc1nc(Cl)c(-c2ccccc2Oc2ccccc2)c(N[C@@H]2C[C@H](CO)[C@@H](O)[C@H]2O)n1 [Example 103] |  |  | EC90 [5]: > 5 µM |
| Cc1ccc(CCNc2nc(C)c(-c3nc4cnccc4s3)c(N[C@@H]3C[C@H](CO)[C@@H](O)[C@H]3O)n2)s1 [Example 1813] |  |  | EC90 [3]: < 0.5 µM |
| COc1cnccc1Nc1nc(C)c(-c2nc3ccccc3s2)c(N[C@@H]2C[C@H](CO)[C@@H](O)[C@H]2O)n1 [Example 1131] | > 5 µM |  |  |
| Nc1nc(Cl)c(-c2cc3cc([N+](=O)[O-])cnc3o2)c(N[C@@H]2C[C@H](CO)[C@@H](O)[C@H]2O)n1 [Example 302] |  |  | EC90 [5]: 0.5 to 5 µM |
| Cc1nc(NCC2CC2)nc(N[C@@H]2C[C@H](CO)[C@H]3OC(C)(C)O[C@H]32)c1-c1nc2cc(OC(F)F)c(OC(F)F)cc2s1 [Example 1005] | > 5 µM |  |  |
| Cc1nc(NCc2cccc(O)c2)nc(N[C@@H]2C[C@H](CO)[C@@H](O)[C@H]2O)c1-c1nc2ccccc2s1 [Example 1212] | < 0.5 µM |  |  |
| COc1ccc2sc(-c3c(C)nc(NCC(F)(F)F)nc3N[C@@H]3C[C@H](CO)[C@@H](O)[C@H]3O)nc2c1 [Example 1010] | 0.5 to 5 µM |  |  |
| CCC(C)(C)Nc1nc(C)c(-c2nc3ccccc3s2)c(N[C@@H]2C[C@H](CO)[C@@H](O)[C@H]2O)n1 [Example 513] |  | < 0.5 µM |  |

| Compound | EC90 [1] | EC90 [2] | further results |
| --- | --- | --- | --- |
| Cc1nc(NCc2cccc(F)c2)nc(N[C@@H]2C[C@H](CO)[C@@H](O)[C@H]2O)c1-c1nc2ccccc2s1 [Example 244] |  | < 0.5 µM |  |
| Cc1nc(CN)nc(N[C@@H]2C[C@H](CO)[C@@H](O)[C@H]2O)c1-c1nc2ccccc2s1 [Example 1916] |  |  | EC90 [3]: > 5 µM |
| Nc1nc(Cl)c(-c2cc3cc(Cl)ccc3o2)c(N[C@@H]2C[C@H](CO)[C@@H](O)[C@H]2O)n1 [Example 165] |  |  | EC90 [5]: > 5 µM |
| Nc1nc(Cl)c(-c2cc3cc(F)cc(F)c3o2)c(N[C@@H]2C[C@H](CO)[C@@H](O)[C@H]2O)n1 [Example 170] |  |  | EC90 [5]: > 5 µM |
| CC(C)(C)CNc1nc(CF)c(-c2nc3ccccc3s2)c(N[C@@H]2C[C@H](CO)[C@@H](O)[C@H]2O)n1 [Example 1120] | > 5 µM |  |  |
| Cc1nc(N[C@H](C)c2ccc(-n3cccn3)cc2)nc(N[C@@H]2C[C@H](CO)[C@@H](O)[C@H]2O)c1-c1nc2c(C)nccc2s1 [Example 1355] |  |  | EC90 [3]: < 0.5 µM |
| Cc1ccc(C2(Nc3nc(C)c(-c4nc5cnccc5s4)c(N[C@@H]4C[C@H](CO)[C@@H](O)[C@H]4O)n3)CC2)cc1 [Example 1315] | 0.5 to 5 µM |  |  |
| CCOc1cc2cc(-c3c(Cl)nc(NCCOC)nc3N[C@@H]3C[C@H](CO)[C@@H](O)[C@H]3O)oc2c(C)n1 [Example 21] |  |  | EC90 [5]: < 0.5 µM |
| Cc1nc(NCC(C)(C)C)nc(N[C@@H]2C[C@H](CO)[C@@H](O)[C@H]2O)c1-c1nc2cnccc2s1 [Example 536] | < 0.5 µM |  |  |
| CCc1cc2cc(-c3c(C)nc(NCc4cc(C)on4)nc3N[C@@H]3C[C@H](CO)[C@H]4OC(C)(C)O[C@H]43)oc2cn1 [Example 702] |  | < 0.5 µM |  |
| COc1cc(COc2nc(C)c(-c3nc4ccccc4s3)c(N[C@@H]3C[C@H](CO)[C@@H](O)[C@H]3O)n2)cc(OC)c1 [Example 1210] | > 5 µM |  |  |
| Cc1nc(NCC(C)(C)C)nc(N2CCC[C@H]2CO)c1-c1nc2ccccc2s1 [Example 1223] | > 5 µM |  |  |
| COC(=O)N(C)C[C@H]1C[C@@H](Nc2nc(NCC(F)(F)F)nc(C)c2-c2nc3ccccc3s2)[C@H](O)[C@@H]1O [Example 1390] |  |  | EC90 [3]: 0.5 to 5 µM |
| Cc1nc(N[C@H](C)c2ccc(OC(F)F)cc2)nc(N[C@@H]2C[C@H](CO)[C@@H](O)[C@H]2O)c1-c1nc2c(C)nccc2s1 [Example 1545] |  |  | EC90 [3]: < 0.5 µM |
| Cc1cc(C)cc(CNc2nc(C)c(-c3nc4ccccc4s3)c(N[C@@H]3C[C@H](CO)[C@@H](O)[C@H]3O)n2)c1 [Example 713] |  | < 0.5 µM |  |
| CN(C)c1nc(N[C@@H]2C[C@H](CO)[C@@H](O)[C@H]2O)c(-c2nc3ccccc3s2)c(C2CC2)n1 [Example 416] |  | 0.5 to 5 µM |  |
| CCc1cc2cc(-c3c(C)nc(NCC(C)C)nc3N[C@@H]3C[C@H](CO)[C@@H](O)[C@H]3O)oc2cn1 [Example 519] |  | < 0.5 µM |  |
| Cc1nc(NCC(F)(F)F)nc(N[C@H]2C[C@H](O)[C@@H]3C[C@@H]32)c1-c1nc2ccccc2s1 [Example 53] |  |  | EC90 [4]: 2.1 µM |
| COCCNc1nc(C)c(-c2nc3cnccc3s2)c(N[C@@H]2C[C@H](CO)[C@@H](O)[C@H]2O)n1 [Example 526] | < 0.5 µM |  |  |
| COc1cccc2sc(-c3c(C)nc(NCC(F)(F)F)nc3N[C@@H]3C[C@H](CO)[C@@H](O)[C@H]3O)nc12 [Example 1070] | 0.5 to 5 µM |  |  |

| Compound | EC90 [1] | EC90 [2] | further results |
| --- | --- | --- | --- |
| COCCNc1nc(C)c(-c2cc3cc(C(F)(F)F)ncc3o2)c(N[C@@H]2C[C@H](CO)[C@@H](O)[C@H]2O)n1 [Example 139] |  | 0.5 to 5 µM |  |
| CCOCCNc1nc(C)c(-c2cc3cc(CC)ncc3o2)c(N[C@@H]2C[C@H](CO)[C@@H](O)[C@H]2O)n1 [Example 515] |  | < 0.5 µM |  |
| Cc1nc(NCC2CC2)nc(N[C@@H]2C[C@H](CO)[C@@H](O)[C@H]2O)c1-c1nc2cc(OC(F)F)c(OC(F)F)cc2s1 [Example 1006] | 0.5 to 5 µM |  |  |
| Cc1cc2cc(-c3c(C)nc(NCC(F)(F)F)nc3N[C@@H]3C[C@H](CO)[C@@H](O)[C@H]3O)oc2c(C)n1 [Example 457] |  | < 0.5 µM |  |
| Cc1nc(NCc2cccs2)nc(N[C@@H]2C[C@H](CO)[C@@H](O)[C@H]2O)c1-c1nc2ccccc2s1 [Example 329] |  | < 0.5 µM |  |
| CCc1cc2cc(-c3c(C)nc(NCC4CC4)nc3N[C@@H]3C[C@H](CO)[C@@H](O)[C@H]3O)oc2cn1 [Example 509] |  | < 0.5 µM |  |
| COCc1cc2cc(-c3c(C)nc(NCc4ccco4)nc3N[C@@H]3C[C@H](CO)[C@@H](O)[C@H]3O)oc2cn1 [Example 1108] | < 0.5 µM |  |  |
| CCOc1ccc2nc(-c3c(Cl)nc(N)nc3N[C@@H]3C[C@H](CO)[C@@H](O)[C@H]3O)sc2c1 [Example 182] |  |  | EC90 [5]: < 0.5 µM |
| COCC(O)CNc1nc(C)c(-c2nc3ccccc3s2)c(N[C@@H]2C[C@H](CO)[C@@H](O)[C@H]2O)n1 (some centres unmarked) [Example 1062] | > 5 µM |  |  |
| CNC(=O)OC[C@H]1C[C@@H](Nc2nc(NCC(F)(F)F)nc(C)c2-c2nc3ccccc3s2)[C@H](O)[C@@H]1O [Example 66] |  |  | EC90 [4]: 0.85 µM |
| CCCCCNc1nc(C)c(-c2nc3ccccc3s2)c(N[C@@H]2CC[C@H]3OC4(CCCCC4)O[C@@H]23)n1 [Example 332] |  | > 5 µM |  |
| Cc1nc(NCC2CC2)nc(O[C@@H]2C[C@H](CO)[C@@H](O)[C@H]2O)c1-c1nc2ccccc2s1 [Example 1132] | > 5 µM |  |  |
| Cc1nc(NCc2ccc(F)cc2F)nc(N[C@@H]2CC[C@@H](O)[C@@]2(C)O)c1-c1nc2cnccc2s1 [Example 1821] |  |  | EC90 [3]: < 0.5 µM |
| Cc1cccc(CNc2nc(C)c(-c3nc4ccccc4s3)c(N[C@@H]3C[C@H](CO)[C@@H](O)[C@H]3O)n2)c1 [Example 486] |  | < 0.5 µM |  |
| CC(C)CNc1nc(Cl)c(-c2nc3ccccc3s2)c(N[C@@H]2C[C@H](CO)[C@@H](O)[C@H]2O)n1 [Example 320] |  |  | EC90 [5]: < 0.5 µM |
| Cc1nc(NCc2ccccc2C(F)(F)F)nc(N[C@@H]2C[C@H](CO)[C@@H](O)[C@H]2O)c1-c1nc2ccccc2s1 [Example 239] |  | 0.5 to 5 µM |  |
| Cc1nc(N[C@@H](C)C(F)(F)F)nc(N[C@@H]2C[C@H](CO)[C@@H](O)[C@H]2O)c1-c1nc2ccccc2s1 [Example 132] |  | 0.5 to 5 µM |  |
| Cc1nc(NCC(F)(F)F)nc(N[C@@H]2C[C@H](CNS(=O)(=O)CCN)[C@@H](O)[C@H]2O)c1-c1nc2ccccc2s1 [Example 1518] |  |  | EC90 [3]: > 5 µM |
| Cc1nc(NCC(F)(F)F)nc(N[C@@H]2C[C@H](CO)[C@H]3OC(C)(C)O[C@H]32)c1-c1nc2cnccc2o1 [Example 2002] |  |  | EC90 (replicon RNA level by real time PCR (Taqman), day 3, calculated EC90): > 5 µM |

— patent publication US8697694B2, “Substituted pyridine and pyrimidine derivatives and their use in treating viral infections” (priority 2008, dated 2014)
